# ChEMBL document CHEMBL3769377, “A synthesis, in silico, in vitro and in vivo study of thieno[2,3-b]pyridine anticancer analogues” (Medchemcomm, 2015)
# Calls of active or inactive are those of the source. No cut-off for these calls is given here.
# Key:
# [1] = Growth inhibition of human NCI60 cells assessed as cell growth at 10 uM after 48 hrs by sulforhodamine B assay relative to control; assay type: functional; details: NCI60, 48 h, read-out: Activity
# MDA-MB-435 [2] = experiment: Cytotoxicity against human MDA-MB-435 cells after 48 hrs by sulforhodamine B assay; assay type: functional; details: MDA-MB-435, 48 h; for CC50: read-out: LC50 (the source's name)
# [3] = Cytotoxicity against human SF539 cells after 48 hrs by sulforhodamine B assay; assay type: functional; details: SF-539, 48 h; for CC50: read-out: LC50 (the source's name)
# 786-0 [4] = experiment: Cytotoxicity against human 786-0 cells after 48 hrs by sulforhodamine B assay; assay type: functional; details: 786-0, 48 h; for CC50: read-out: LC50 (the source's name)
# MDA-MB-468 [5] = experiment: Cytotoxicity against human MDA-MB-468 cells after 48 hrs by sulforhodamine B assay; assay type: functional; details: MDA-MB-468, 48 h; for CC50: read-out: LC50 (the source's name)
# MDA-MB-435 [6] = experiment: Cytotoxicity against human MDA-MB-435 cells assessed as cell death at 100 uM after 48 hrs by sulforhodamine B assay; assay type: functional, cell-based
# SF-539 [7] = experiment: Cytotoxicity against human SF539 cells assessed as assessed as cell death at 100 uM after 48 hrs by sulforhodamine B assay; assay type: functional, cell-based
# 786-0 [8] = experiment: Cytotoxicity against human 786-0 cells assessed as cell death at 100 uM after 48 hrs by sulforhodamine B assay; assay type: functional, cell-based
# MDA-MB-468 [9] = experiment: Cytotoxicity against human MDA-MB-468 cells assessed as cell death at 100 uM after 48 hrs by sulforhodamine B assay; assay type: functional, cell-based
# [10] = target: Tyrosyl-DNA phosphodiesterase 1 (Homo sapiens, UniProt Q9NUW8); experiment: Inhibition of recombinant human N-terminal His-tagged TDP1 (1824 bp) expressed in Escherichia coli BL21(DE3) cells using 5'-(5,6 FAM-AAC GTC AGG GTC TTC C-BHQ1)-3' as substrate measured every 1 min by RT-PCR method
# Sequence of Tyrosyl-DNA phosphodiesterase 1 (Q9NUW8 whole entry): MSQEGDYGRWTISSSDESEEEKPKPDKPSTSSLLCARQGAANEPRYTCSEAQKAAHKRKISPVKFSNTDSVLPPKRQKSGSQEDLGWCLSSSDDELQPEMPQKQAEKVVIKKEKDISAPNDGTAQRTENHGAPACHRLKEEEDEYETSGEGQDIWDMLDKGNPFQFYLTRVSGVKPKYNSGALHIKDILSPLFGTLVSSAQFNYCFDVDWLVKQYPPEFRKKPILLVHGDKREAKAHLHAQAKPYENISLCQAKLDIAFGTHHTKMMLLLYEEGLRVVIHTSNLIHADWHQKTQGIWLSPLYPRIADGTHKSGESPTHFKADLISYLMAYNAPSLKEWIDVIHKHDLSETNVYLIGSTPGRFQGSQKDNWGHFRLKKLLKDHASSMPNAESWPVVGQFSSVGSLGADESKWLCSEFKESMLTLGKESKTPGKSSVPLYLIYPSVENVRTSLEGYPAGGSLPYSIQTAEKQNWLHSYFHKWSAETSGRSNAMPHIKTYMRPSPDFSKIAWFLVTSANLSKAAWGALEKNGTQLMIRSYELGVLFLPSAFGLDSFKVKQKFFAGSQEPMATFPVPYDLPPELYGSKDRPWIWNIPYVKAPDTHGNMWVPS
# SF-539 [11] = experiment: Cytotoxicity against human SF539 cells assessed as growth inhibition at 100 uM after 48 hrs by sulforhodamine B assay; assay type: functional, cell-based
smiles,measurement,setting,value
Cc1cccc(NC(=O)c2sc3nc4c(cc3c2N)CCCC4)c1,growth at 10 µM,[1],39.9%
same,GI50,MDA-MB-435 [2],305 nM
same,GI50,[3],4740 nM
same,GI50,786-0 [4],4130 nM
same,GI50,MDA-MB-468 [5],1750 nM
same,Activity,MDA-MB-435 [6],inactive
same,Activity,SF-539 [7],inactive
same,Activity,786-0 [8],inactive
same,Activity,MDA-MB-468 [9],inactive
Nc1c(C(=O)Nc2ccccc2)sc2nc3c(cc12)CCCCC3,growth at 10 µM,[1],14.7%
same,GI50,MDA-MB-435 [2],205 nM
same,GI50,[3],307 nM
same,CC50,[3],94300 nM
same,GI50,786-0 [4],465 nM
same,GI50,MDA-MB-468 [5],254 nM
same,Activity,MDA-MB-435 [6],inactive
same,Activity,786-0 [8],inactive
same,Activity,MDA-MB-468 [9],inactive
Nc1c(C(=O)Nc2ccccc2C(F)(F)F)sc2nc3c(cc12)CCCC3,growth at 10 µM,[1],90.6%
Nc1c(C(=O)Nc2cccc(C(F)(F)F)c2)sc2nc3c(cc12)CCCCCC3,growth at 10 µM,[1],7%
same,GI50,MDA-MB-435 [2],2100 nM
same,CC50,MDA-MB-435 [2],59200 nM
same,GI50,[3],1710 nM
same,CC50,[3],6650 nM
same,GI50,786-0 [4],1600 nM
same,CC50,786-0 [4],6070 nM
same,GI50,MDA-MB-468 [5],798 nM
same,CC50,MDA-MB-468 [5],15400 nM
same,IC50,[10],500 nM
Nc1c(C(=O)Nc2ccccc2)sc2nc3c(cc12)CCCC3,growth at 10 µM,[1],30.3%
same,GI50,MDA-MB-435 [2],172 nM
same,GI50,[3],416 nM
same,GI50,786-0 [4],656 nM
same,GI50,MDA-MB-468 [5],303 nM
same,Activity,MDA-MB-435 [6],inactive
same,Activity,SF-539 [7],inactive
same,Activity,786-0 [8],inactive
same,Activity,MDA-MB-468 [9],inactive
COc1cccc(NC(=O)c2sc3nc4c(cc3c2N)CCCC4)c1,growth at 10 µM,[1],28.2%
same,GI50,MDA-MB-435 [2],150 nM
same,CC50,MDA-MB-435 [2],13500 nM
same,GI50,[3],368 nM
same,GI50,786-0 [4],420 nM
same,GI50,MDA-MB-468 [5],239 nM
same,Activity,SF-539 [7],inactive
same,Activity,786-0 [8],inactive
same,Activity,MDA-MB-468 [9],inactive
Nc1c(C(=O)Nc2ccccc2Cl)sc2nc3c(cc12)CCCCCC3,growth at 10 µM,[1],29%
same,GI50,MDA-MB-435 [2],275 nM
same,CC50,MDA-MB-435 [2],20900 nM
same,GI50,[3],2650 nM
same,CC50,[3],46600 nM
same,GI50,786-0 [4],1750 nM
same,CC50,786-0 [4],6120 nM
same,GI50,MDA-MB-468 [5],2250 nM
same,Activity,MDA-MB-468 [9],inactive
same,IC50,[10],1000 nM
Nc1c(C(=O)Nc2ccccc2F)sc2nc3c(cc12)CCCC3,growth at 10 µM,[1],34.5%
CCC1CCc2nc3sc(C(=O)Nc4ccccc4F)c(N)c3cc2C1 (racemic),growth at 10 µM,[1],61.1%
same,GI50,MDA-MB-435 [2],133 nM
same,GI50,[3],10000 nM
same,GI50,786-0 [4],41700 nM
same,GI50,MDA-MB-468 [5],347 nM
same,Activity,MDA-MB-435 [6],inactive
same,Activity,SF-539 [7],inactive
same,Activity,786-0 [8],inactive
same,Activity,MDA-MB-468 [9],inactive
Nc1c(C(=O)Nc2ccccc2F)sc2nc3c(cc12)CCC3,growth at 10 µM,[1],102%
Nc1c(C(=O)Nc2cccc(C(F)(F)F)c2)sc2nc3c(cc12)CCCC3,growth at 10 µM,[1],88.1%
Nc1c(C(=O)Nc2ccccc2)sc2nc3c(cc12)CCCCCC3,growth at 10 µM,[1],12.5%
same,GI50,MDA-MB-435 [2],52 nM
same,CC50,MDA-MB-435 [2],897 nM
same,GI50,[3],217 nM
same,CC50,[3],3200 nM
same,GI50,786-0 [4],354 nM
same,CC50,786-0 [4],10200 nM
same,GI50,MDA-MB-468 [5],291 nM
same,Activity,MDA-MB-468 [9],inactive
CCC1CCc2nc3sc(C(=O)Nc4ccccc4C)c(N)c3cc2C1 (racemic),growth at 10 µM,[1],36.5%
same,GI50,MDA-MB-435 [2],104 nM
same,GI50,[3],398 nM
same,GI50,786-0 [4],371 nM
same,GI50,MDA-MB-468 [5],244 nM
same,Activity,SF-539 [7],inactive
same,Activity,786-0 [8],inactive
same,Activity,MDA-MB-468 [9],inactive
Nc1c(C(=O)Nc2ccccc2Cl)sc2nc3c(cc12)CCCC3,growth at 10 µM,[1],99.4%
Nc1c(C(=O)Nc2ccccc2C(F)(F)F)sc2nc3c(cc12)CCC3,IC50,[10],> 15000 nM
Nc1c(C(=O)Nc2c(Cl)cccc2Cl)sc2nc3c(cc12)CCCCC3,growth at 10 µM,[1],52.1%
Nc1c(C(=O)Nc2cccc(C(F)(F)F)c2)sc2nc3c(cc12)CCCCC3,growth at 10 µM,[1],10%
same,GI50,MDA-MB-435 [2],2530 nM
same,GI50,[3],1940 nM
same,CC50,[3],11300 nM
same,GI50,786-0 [4],1580 nM
same,CC50,786-0 [4],6240 nM
same,GI50,MDA-MB-468 [5],394 nM
same,CC50,MDA-MB-468 [5],31000 nM
same,Activity,MDA-MB-435 [6],inactive
Nc1c(C(=O)Nc2ccccc2)sc2nc3c(cc12)CCC3,growth at 10 µM,[1],79.5%
Nc1c(C(=O)Nc2cccc(C(F)(F)F)c2)sc2nc3c(cc12)C(=O)CC3,IC50,[10],1700 nM
CCC1CCc2nc3sc(C(=O)Nc4cccc(F)c4)c(N)c3cc2C1 (racemic),growth at 10 µM,[1],60.3%
same,GI50,MDA-MB-435 [2],110 nM
same,GI50,786-0 [4],701 nM
same,GI50,MDA-MB-468 [5],471 nM
same,Activity,MDA-MB-435 [6],inactive
same,Activity,SF-539 [7],inactive
same,growth inhibition (GI),SF-539 [11],inactive
same,Activity,786-0 [8],inactive
same,Activity,MDA-MB-468 [9],inactive
Cc1cccc(NC(=O)c2sc3nc4c(cc3c2N)CCC4)c1C,growth at 10 µM,[1],23.6%
same,GI50,MDA-MB-435 [2],52 nM
same,CC50,MDA-MB-435 [2],22700 nM
same,GI50,[3],241 nM
same,CC50,[3],72400 nM
same,GI50,786-0 [4],367 nM
same,CC50,786-0 [4],14300 nM
same,GI50,MDA-MB-468 [5],197 nM
same,CC50,MDA-MB-468 [5],71200 nM
Nc1c(C(=O)Nc2ccccc2C(F)(F)F)sc2nc3c(cc12)CCCCCC3,growth at 10 µM,[1],80.2%
CCC1CCc2nc3sc(C(=O)Nc4cccc(C)c4)c(N)c3cc2C1 (racemic),growth at 10 µM,[1],69.7%
